Data from patent US4138554A, “7-[D-α-(4-Hydroxy-1,5-naphthyridine-3-carboxamido)-α-phenyl (and p-hydroxyphenyl)acetamido]-3-carbamoyloxymethyl-3-cephem-4-carboxylic acids” (priority 1977, dated 1979).
Like-named read-outs stand apart in the source and are kept apart here.

Test system: Pseudomonas aeruginosa
Assay: MIC by agar dilution against 61 strains of Pseudomonas aeruginosa, secondary evaluation
Format: cell-based
Conditions: for Mean % Relative Activity (SPBC = 100%): P. aerug. (61 strains); for MIC: Pseudomonas aeruginosa
Procedure, shortened: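 Compounds were diluted two-fold serially into Mueller-Hinton agar, then organisms were applied using Steers' apparatus and MICs read. The primary panel comprised 31 test organisms, and the secondary evaluation 61 strains of P. aeruginosa.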

NC(=O)OCC1=C(C(=O)O)N2C(=O)C(NC(=O)[C@H](NC(=O)c3cnc4cccnc4c3O)c3ccccc3)[C@H]2SC1 (stereo partly drawn) [BB-S520, Sodium 7-[D-α-(4-hydroxy-1,5-naphthyridine-3-carboxamido)-α-phenylacetamido]-3-carbamoyloxymethyl-3-cephem-4-carboxylate]
Rel. Act. (SBPC=100%) (61 strains of Pseudomonas aeruginosa, Table 7): 1016%
Mean % Relative Activity (SPBC = 100%) (lot 1, Table 5): 714%
Mean % Relative Activity (SPBC = 100%) (lot 2, Table 5): 1016%
Mean % Relative Activity (Sulbenicillin = 100%) (Ps. aeruginosa (61 strains), from geometric means of MICs in Table 2): 714%
MIC (61 strains of Pseudomonas aeruginosa, Table 7, read-out: Geometric Mean of MIC): 2.4 µg/mL
MIC (BBRI Pa-No. 1, D15, Table 2, read-out: MIC): 12.5 µg/mL
MIC (BBRI Pa-No. 1, D15, Table 7, read-out: MIC): 6.3 µg/mL
MIC (BBRI Pa-No. 2, VA, Table 2, read-out: MIC): 3.1 µg/mL
MIC (BBRI Pa-No. 2, VA, Table 7, read-out: MIC): 3.1 µg/mL
MIC (BBRI Pa-No. 3, 1449VA, Table 2, read-out: MIC): 1.6 µg/mL
MIC (BBRI Pa-No. 3, 1449VA, Table 7, read-out: MIC): 0.8 µg/mL
MIC (BBRI Pa-No. 4, H9 D113, Table 2, read-out: MIC): 12.5 µg/mL
MIC (BBRI Pa-No. 4, H9 D113, Table 7, read-out: MIC): 1.6 µg/mL
MIC (BBRI Pa-No. 5, M4865KC, Table 2, read-out: MIC): 3.1 µg/mL
MIC (BBRI Pa-No. 5, N4865KC, Table 7, read-out: MIC): 0.8 µg/mL
MIC (BBRI Pa-No. 6, No. 5, Table 2, read-out: MIC): 25 µg/mL
MIC (BBRI Pa-No. 6, No. 5, Table 7, read-out: MIC): 12.5 µg/mL
MIC (BBRI Pa-No. 7, Table 2, read-out: MIC): 6.3 µg/mL
MIC (BBRI Pa-No. 7, Table 7, read-out: MIC): 3.1 µg/mL
MIC (BBRI Pa-No. 8, Table 2, read-out: MIC): 3.1 µg/mL
MIC (BBRI Pa-No. 8, Table 7, read-out: MIC): 3.1 µg/mL
MIC (BBRI Pa-No. 9, Yale, Table 2, read-out: MIC): 3.1 µg/mL
MIC (BBRI Pa-No. 9, Yale, Table 7, read-out: MIC): 1.6 µg/mL
MIC (BBRI Pa-No. 10, Table 2, read-out: MIC): 50 µg/mL
MIC (BBRI Pa-No. 10, Table 7, read-out: MIC): 25 µg/mL
MIC (BBRI Pa-No. 11, Table 2, read-out: MIC): 3.1 µg/mL
MIC (BBRI Pa-No. 11, Table 7, read-out: MIC): 3.1 µg/mL
MIC (BBRI Pa-No. 12, Table 2, read-out: MIC): 6.3 µg/mL
MIC (BBRI Pa-No. 12, Table 7, read-out: MIC): 3.1 µg/mL
MIC (BBRI Pa-No. 14, Table 2, read-out: MIC): 3.1 µg/mL
MIC (BBRI Pa-No. 14, Table 7, read-out: MIC): 0.8 µg/mL
MIC (BBRI Pa-No. 15, Table 2, read-out: MIC): 12.5 µg/mL
MIC (BBRI Pa-No. 15, Table 7, read-out: MIC): 6.3 µg/mL
MIC (BBRI Pa-No. 16, No. 130, Table 2, read-out: MIC): 0.8 µg/mL
MIC (BBRI Pa-No. 16, No. 130, Table 7, read-out: MIC): 0.4 µg/mL
MIC (BBRI Pa-No. 17, H6 D114, Table 2, read-out: MIC): 6.3 µg/mL
MIC (BBRI Pa-No. 17, H6 D114, Table 7, read-out: MIC): 3.1 µg/mL
MIC (BBRI Pa-No. 18, H8 D121, Table 2, read-out: MIC): 6.3 µg/mL
MIC (BBRI Pa-No. 18, H8 D121, Table 7, read-out: MIC): 1.6 µg/mL
MIC (BBRI Pa-No. 19, Table 2, read-out: MIC): 1.6 µg/mL
MIC (BBRI Pa-No. 19, Table 7, read-out: MIC): 0.8 µg/mL
MIC (BBRI Pa-No. 20, Table 2, read-out: MIC): 3.1 µg/mL
MIC (BBRI Pa-No. 20, Table 7, read-out: MIC): 3.1 µg/mL
MIC (BBRI Pa-No. 21, Table 2, read-out: MIC): 3.1 µg/mL
MIC (BBRI Pa-No. 21, Table 7, read-out: MIC): 3.1 µg/mL
MIC (BBRI Pa-No. 23, Table 2, read-out: MIC): 6.3 µg/mL
MIC (BBRI Pa-No. 23, Table 7, read-out: MIC): 1.6 µg/mL
MIC (BBRI Pa-No. 24, Table 2, read-out: MIC): 50 µg/mL
MIC (BBRI Pa-No. 24, Table 7, read-out: MIC): 25 µg/mL
MIC (BBRI Pa-No. 25, Table 2, read-out: MIC): 1.6 µg/mL
MIC (BBRI Pa-No. 25, Table 7, read-out: MIC): 0.8 µg/mL
MIC (BBRI Pa-No. 26, Ps32, Table 2, read-out: MIC): 3.1 µg/mL
MIC (BBRI Pa-No. 26, Ps32, Table 7, read-out: MIC): 6.3 µg/mL
MIC (BBRI Pa-No. 28, CPH1C527/72, Table 7, read-out: MIC): 3.1 µg/mL
MIC (BBRI Pa-No. 28, CPH10527/72, Table 2, read-out: MIC): 6.3 µg/mL
MIC (BBRI Pa-No. 29, D122, Table 2, read-out: MIC): 1.6 µg/mL
MIC (BBRI Pa-No. 29, D122, Table 7, read-out: MIC): 1.6 µg/mL
MIC (BBRI Pa-No. 30, Table 2, read-out: MIC): 3.1 µg/mL
MIC (BBRI Pa-No. 30, Table 7, read-out: MIC): 1.6 µg/mL
MIC (BBRI Pa-No. 31, Table 2, read-out: MIC): 1.6 µg/mL
MIC (BBRI Pa-No. 31, Table 7, read-out: MIC): 0.8 µg/mL
MIC (BBRI Pa-No. 32, Table 2, read-out: MIC): 3.1 µg/mL
MIC (BBRI Pa-No. 32, Table 7, read-out: MIC): 1.6 µg/mL
MIC (BBRI Pa-No. 33, Table 2, read-out: MIC): 12.5 µg/mL
MIC (BBRI Pa-No. 33, Table 7, read-out: MIC): 1.6 µg/mL
MIC (BBRI Pa-No. 34, Table 2, read-out: MIC): 3.1 µg/mL
MIC (BBRI Pa-No. 34, Table 7, read-out: MIC): 1.6 µg/mL
MIC (BBRI Pa-No. 35, Table 2, read-out: MIC): 12.5 µg/mL
MIC (BBRI Pa-No. 35, Table 7, read-out: MIC): 6.3 µg/mL
MIC (BBRI Pa-No. 36, Table 2, read-out: MIC): 0.4 µg/mL
MIC (BBRI Pa-No. 36, Table 7, read-out: MIC): < 0.2 µg/mL
MIC (BBRI Pa-No. 37, Table 2, read-out: MIC): 3.1 µg/mL
MIC (BBRI Pa-No. 37, Table 7, read-out: MIC): 3.1 µg/mL
MIC (BBRI Pa-No. 38, Table 2, read-out: MIC): 6.3 µg/mL
MIC (BBRI Pa-No. 38, Table 7, read-out: MIC): 6.3 µg/mL
MIC (BBRI Pa-No. 39, Table 2, read-out: MIC): 3.1 µg/mL
